Reference: US7300946B2, “N-(substituted arylmethyl)-4-(disubstituted methyl) piperidines and pyridines” (Bayer CropScience AG, priority 2002, dated 2007)

System: tobacco budworm (Heliothis virescens [Fabricius])
Test: surface-treated diet test against the tobacco budworm
Type: in vivo
Conditions: tobacco budworm second instar larvae, 0.25 millimoles of candidate insecticide on the surface of the diet, five-day exposure; for Percent Mortality: compared to total number of insects infested; for Percent Growth Inhibition: inhibition of insect weight relative to untreated controls
Procedure: Candidate insecticides were evaluated for activity against the tobacco budworm (Heliothis virescens [Fabricius]) in a surface-treated diet test.
In this test one mL of molten (65–70° C.) wheat germ-based artificial diet was pipetted into each well of a four by six (24 well) multi-well plate (ID# 430345-15.5 mm dia.×17.6 mm deep; Corning Costar Corp., One Alewife Center, Cambridge, Mass. 02140). The diet was allowed to cool to ambient temperature before treatment with candidate insecticide.
For a determination of insecticidal activity, solutions of the candidate insecticides were prepared for testing using a Packard 204DT Multiprobe® Robotic System (Packard Instrument Company, 800 Research Parkway, Meriden, Conn. 06450), in which the robot first diluted a standard 50 millimolar DMSO solution of candidate insecticide with a 1:1 water/acetone solution (V/V) in a ratio of 1:7 stock solution to water/acetone. The robot subsequently pipetted 40 microliters of the so-prepared solution onto the surface of the diet in each of three wells in the 24 multi-well plate. The process was repeated with solutions of seven other candidate insecticides. Once treated, the contents of the multi-well plate were allowed to dry, leaving 0.25 millimoles of candidate insecticide on the surface of the diet, or a concentration of 0.25 millimolar. Appropriate untreated controls containing only DMSO on the diet surface were also included in this test. […]
In each well of the test plate was placed one second instar tobacco budworm larvea, each weighing approximately five milligrams. After the larvae were placed in each well, the plate was sealed with clear polyfilm adhesive tape. The tape over each well was perforated to ensure an adequate air supply. The plates were then held in a growth chamber at 25° C. and 60% relative humidity for five days (light 14 hours/day).
After the five-day exposure period insecticidal activity for each rate of application of candidate insecticide was assessed as percent inhibition of insect weight relative to the weight of insects from untreated controls, and percent mortality when compared to the total number of insects infested.
The test compounds of formula I are identified by numbers that correspond to those in Table 1.
These tests were conducted with 0.25 millimoles of candidate insecticide on the surface of the diet.

Compound	Percent Mortality (surface-treated diet)	Percent Growth Inhibition (surface-treated diet)	Percent Mortality	Percent Growth Inhibition
CCn1nnc(-c2ccc(CN3CCC(C(OC(=O)Nc4cc(Cl)ccc4Cl)c4ccc(C(F)(F)F)cc4)CC3)cc2)n1 (stereo not shown) [Compound 281]	100%	100%		
O=C(Nc1cccc(C(F)(F)F)c1)OC(c1cccc(C(F)(F)F)c1)C1CCN(Cc2ccc(Oc3ccccn3)cc2)CC1 (stereo not shown) [Compound 655]	100%	100%		
CCn1nnc(-c2ccc(CN3CCC(C(OC(=O)Nc4ccc(C(F)(F)F)cc4)c4ccc(C(F)(F)F)cc4)CC3)cc2)n1 (stereo not shown) [Compound 289]	100%	100%		
CCn1nnc(-c2ccc(CN3CCC(C(OC(=O)Nc4ccc(C(F)(F)F)cc4)c4ccc(OC(F)(F)F)cc4)CC3)cc2)n1 (stereo not shown) [Compound 291]	100%	95%		
CCCOc1ccc(CN2CCC(C(OC(=O)Nc3cc(F)cc(F)c3)c3ccc(F)cc3)CC2)cc1 (stereo not shown) [Compound 479]	100%	100%		
CCn1nnc(-c2ccc(CN3CCC(C(OC(=O)Nc4ccc(Cl)c(Cl)c4)c4cc(Cl)cc(Cl)c4)CC3)cc2)n1 (stereo not shown) [Compound 578]	100%	100%		
O=C(Nc1ccc(Cl)cc1)OC(c1ccc(C(F)(F)F)cc1)C1CCN(Cc2ccc(Oc3cccc[n+]3[O-])cc2)CC1 (stereo not shown) [Compound 669]	100%	100%		
Cn1nnc(-c2ccc(CN3CCC(C(NCc4ccc(F)cc4)c4ccc(OC(F)(F)F)cc4)CC3)cc2)n1 (stereo not shown) [Compound 315]	100%	100%		
CCON=Cc1ccc(CN2CCC(C(OC(=O)Nc3c(F)c(F)c(F)c(F)c3F)c3ccc(C(F)(F)F)cc3)CC2)cc1 (stereo not shown) [Compound 202]	100%	100%		
CCOS(=O)(=O)[O-].CCO[N+]1(Cc2ccc(Oc3ccccn3)cc2)CCC(C(OC(=O)Nc2ccc(Cl)cc2)c2ccc(C(F)(F)F)cc2)CC1 (stereo not shown) [Compound 860, N-(4-chlorophenyl)({1-ethoxy-1-[(4-(2-pyridyloxy)phenyl)methyl](4-piperidyl)}[4-(trifluoromethyl)phenyl]methoxy)carboxamide, ethyl sulfate salt]			100%	100%
Cn1nnc(-c2ccc(CN3CCC(C(NC(=O)c4cccc(F)c4)c4ccc(OC(F)(F)F)cc4)CC3)cc2)n1 (stereo not shown) [Compound 327]	0%	99%		
O=C(Nc1c(F)c(F)c(F)c(F)c1F)OC(c1ccc(C(F)(F)F)cc1)C1CCN(Cc2ccc(Oc3ccccn3)cc2)CC1 (stereo not shown) [Compound 243]	100%	100%		
O=C(Nc1ccc(F)cc1)OC(c1ccc(OC(F)(F)F)cc1)C1CCN(Cc2ccc(Cl)cc2)CC1 (stereo not shown) [Compound 459]	0%	99%		
Cn1nnc(-c2ccc(CN3CCC(C(NC(=O)Nc4ccc(Cl)cc4)c4ccc(OC(F)(F)F)cc4)CC3)cc2)n1 (stereo not shown) [Compound 336]	100%	100%		
O=C(Nc1cc(Cl)ccc1Cl)OC(c1ccc(C(F)(F)F)cc1)C1CCN(Cc2ccc(Oc3ccccn3)cc2)CC1 (stereo not shown) [Compound 231]	100%	100%		
CCn1nnc(-c2ccc(CN3CCC(C(OC(=O)Nc4c(Cl)cccc4Cl)c4ccc(C(F)(F)F)cc4)CC3)cc2)n1 (stereo not shown) [Compound 282]	0%	95%		
[O-][N+]1(Cc2ccc(Oc3ncccn3)cc2)CCC(=C(c2ccc(C(F)(F)F)cc2)c2cc(Cl)cc(Cl)c2)CC1 (stereo not shown) [Compound 851]			50%	100%
Cn1nnc(-c2ccc(CN3CCC(C(OC(=O)Nc4ccc(Cl)cc4)c4ccc(OC(F)(F)F)cc4)CC3)cc2)n1 (stereo not shown) [Compound 266]	100%	100%		
CCn1nnc(-c2ccc(CN3CCC(C(OC(=O)Nc4cc(F)cc(F)c4)c4ccc(C(F)(F)F)cc4)CC3)cc2)n1 (stereo not shown) [Compound 610]	100%	100%		
COc1ccc(NC(=O)OC(c2ccc(C(F)(F)F)cc2)C2CCN(Cc3ccc(Oc4ccccn4)cc3)CC2)cc1Cl (stereo not shown) [Compound 699]	100%	100%		
O=C(Nc1cc(F)cc(F)c1)OC(c1ccc(Cl)cc1Cl)C1CCN(Cc2ccc(Oc3ncccn3)cc2)CC1 (stereo not shown) [Compound 720]			100%	100%

Compound	Percent Mortality (surface-treated diet)	Percent Growth Inhibition (surface-treated diet)	Percent Mortality	Percent Growth Inhibition
O=C(Nc1cc(F)cc(F)c1)OC(c1ccc(OC(F)(F)F)cc1)C1CCN(Cc2ccc(Cl)cc2)CC1 (stereo not shown) [Compound 460]	0%	100%		
CCOC(=O)c1ccc(CN2CCC(=C(c3ccc(C(F)(F)F)cc3)c3ccc(C(F)(F)F)cc3)CC2)cc1 [Compound 50]	67%	96%		
[O-][N+]1(Cc2ccc(Oc3ncccn3)cc2)CCC(=C(c2ccc(C(F)(F)F)cc2)c2ccccc2Cl)CC1 (stereo not shown) [Compound 845]			83%	100%
CCn1nnc(-c2ccc(CN3CCC(=C(c4ccccc4)c4ccc(Cl)cc4)CC3)cc2)n1 [Compound 76]	0%	91%		
CCn1nnc(-c2ccc(CN3CCC(C(OC(=O)Nc4cccc(C(F)(F)F)c4)c4ccc(Oc5ccccc5)cc4)CC3)cc2)n1 (stereo not shown) [Compound 620]	0%	29%		
CCn1nnc(-c2ccc(CN3CCC(C(OC(=O)Nc4ccc(C(F)(F)F)cc4)c4ccccc4)CC3)cc2)n1 (stereo not shown) [Compound 565]	100%	100%		
O=C(Nc1cc(F)cc(F)c1)OC(c1ccc(C(F)(F)F)cc1)C1CCN(Cc2ccc(Oc3ncncn3)cc2)CC1 (stereo not shown) [Compound 739]			0%	100%
FC(F)(F)c1ccc(C(Oc2ccc(C(F)(F)F)cn2)C2CCN(Cc3ccc(Oc4ccccn4)cc3)CC2)cc1 (stereo not shown) [Compound 437]	100%	100%		
Cn1nnc(-c2ccc(CN3CCC(C(Oc4ccc(Cl)nn4)c4ccc(OC(F)(F)F)cc4)CC3)cc2)n1 (stereo not shown) [Compound 453]	83%	100%		
O=C(Nc1ccc(SC(F)(F)F)cc1)OC(c1ccc(C(F)(F)F)cc1)C1CCN(Cc2ccc(Oc3ccccn3)cc2)CC1 (stereo not shown) [Compound 703]			100%	100%
O=C(Nc1ccc(Cl)cc1)OC(c1ccc(C(F)(F)F)cc1)C1CCN(Cc2ccc(-c3ccccc3)cc2)CC1 (stereo not shown) [Compound 543]	100%	100%		
O=C(Nc1ccc(Cl)cc1)OC(c1ccc(C(F)(F)F)cc1)C1CCN(Cc2ccc(Oc3ccc(Cl)nn3)cc2)CC1 (stereo not shown) [Compound 737]			100%	100%
Cn1nnc(-c2ccc(CN3CCC(C(NC(=O)Oc4cccc(F)c4)c4ccc(OC(F)(F)F)cc4)CC3)cc2)n1 (stereo not shown) [Compound 352]	83%	100%		
CNC(=O)Oc1ccc(CN2CCC(=C(c3ccc(Cl)cc3)c3ccc(Cl)cc3)CC2)cc1 [Compound 789]			100%	100%
FC(F)(F)c1ccc(C(=C2CCN(Cc3ccc(OCc4nccs4)cc3)CC2)c2ccc(C(F)(F)F)cc2)cc1 [Compound 61]	100%	100%		
CCn1nnc(-c2ccc(C[N+]3([O-])CCC(=C(c4ccc5c(c4)OC(F)(F)O5)c4ccc5c(c4)OC(F)(F)O5)CC3)cc2)n1 (stereo not shown) [Compound 115]	100%	100%		
CCON=Cc1ccc(CN2CCC(C(OC(=O)Nc3cccc(F)c3)c3ccc(C(F)(F)F)cc3)CC2)cc1 (stereo not shown) [Compound 535]	100%	100%		
Cn1nnc(-c2ccc(CN3CCC(C(NC(=O)c4ccc([N+](=O)[O-])cc4)c4ccc(OC(F)(F)F)cc4)CC3)cc2)n1 (stereo not shown) [Compound 333]	17%	99%		
CN(C(=O)OC(c1ccc(C(F)(F)F)cc1)C1CCN(Cc2ccc(Oc3ccccn3)cc2)CC1)c1ccccc1 (stereo not shown) [Compound 658]	0%	100%		
Cn1nnc(-c2ccc(CN3CCC(C(OC(=O)Nc4ccc(F)cc4)c4ccc(OC(F)(F)F)cc4)CC3)cc2)n1 (stereo not shown) [Compound 275]	100%	100%		
